Legend:
[1] = test system: plant myrosinase; conditions: cited from earlier work
[2] = target: white mustard (Sinapis alba) myrosinase (Sinapis alba, UniProt P29736); assay: KM of white mustard myrosinase; type: biochemical; conditions: substrate
[3] = target: T1, myrosinase from the cabbage aphid (Brevicoryne brassicae) (Brevicoryne brassicae, UniProt Q95X01); assay: Kinetic studies of aphid myrosinase (glucose released by glucosinolate hydrolysis); type: biochemical; conditions: for Km: substrate, read-out: apparent Km of the aphid myrosinase
T1 construct: The myrosinase from freeze-dried aphids was purified in five steps; from tissue; host or cells: whole freeze-dried Brevicoryne brassicae aphids
T1 sequence (Q95X01 1-464): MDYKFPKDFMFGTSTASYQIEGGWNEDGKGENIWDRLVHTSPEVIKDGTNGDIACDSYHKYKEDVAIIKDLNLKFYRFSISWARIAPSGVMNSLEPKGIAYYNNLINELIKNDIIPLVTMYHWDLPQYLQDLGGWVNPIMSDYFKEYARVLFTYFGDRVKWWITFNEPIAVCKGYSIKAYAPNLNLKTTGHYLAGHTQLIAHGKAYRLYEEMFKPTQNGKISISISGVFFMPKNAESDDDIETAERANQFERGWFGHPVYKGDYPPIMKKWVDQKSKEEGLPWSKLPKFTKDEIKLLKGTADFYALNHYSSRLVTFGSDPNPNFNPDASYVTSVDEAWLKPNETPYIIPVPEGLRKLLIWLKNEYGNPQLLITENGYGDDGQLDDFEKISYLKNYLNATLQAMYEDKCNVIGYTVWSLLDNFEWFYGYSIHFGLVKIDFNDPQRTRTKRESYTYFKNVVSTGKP
Experimental: (§1) An assay based on the determination of glucose released by the hydrolysis of 2-propenyl glucosinolate (sinigrin) by the aphid myrosinase was used routinely to determine enzyme activity during protein purification. GOD-Perid test reagents were purchased from Boehringer Mannheim.
Enzyme solution and sinigrin (1.08 mM) in 500 μl of sodium citrate buffer (100 mM, pH 5.5) was incubated at 30° C. for 20 min. The reaction was stopped by addition of 40 μl 3M HCl (aq) and GOD-PERID reagent (2.5 ml) added to the reaction mixture and incubated for 15 min at 37° C. The optical density was read at 346 nm and the glucose concentration calculated from a calibration graph.
The present inventors have performed a number of kinetic studies on the myrosinase from the cabbage aphid (Brevicoryne brassicae) which they have characterised. […] Like the cabbage aphid, the turnip aphid (Lipaphis erysimi) myrosinase was not activated by ascorbate in the concentration range 0.1-20 mM. The KM for sinigrin is 0.42 mM for the white mustard (Sinapis alba) myrosinase.

[4] = target: T2, myrosinase from the cabbage aphid B. brassicae (Brevicoryne brassicae, UniProt Q95X01); conditions: substrates 2-propenyl and 2-hydroxy-3-butenyl glucosinolate; cited from earlier work
T2 sequence (Q95X01 1-464): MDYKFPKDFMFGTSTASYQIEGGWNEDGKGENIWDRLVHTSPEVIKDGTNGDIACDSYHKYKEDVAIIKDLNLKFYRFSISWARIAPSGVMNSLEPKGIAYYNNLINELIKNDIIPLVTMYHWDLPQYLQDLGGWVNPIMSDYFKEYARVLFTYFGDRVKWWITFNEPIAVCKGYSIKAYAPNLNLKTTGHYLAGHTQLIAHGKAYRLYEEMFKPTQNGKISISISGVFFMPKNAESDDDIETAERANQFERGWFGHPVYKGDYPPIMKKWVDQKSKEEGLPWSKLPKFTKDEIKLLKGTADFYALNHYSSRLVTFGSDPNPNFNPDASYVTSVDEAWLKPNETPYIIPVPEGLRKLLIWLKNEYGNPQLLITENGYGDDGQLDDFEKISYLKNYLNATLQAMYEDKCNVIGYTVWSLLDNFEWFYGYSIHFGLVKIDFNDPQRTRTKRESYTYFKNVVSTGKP

[5] = test system: myrosinase from the mustard plant Brassica nigra; conditions: substrates 2-propenyl and 2-hydroxy-3-butenyl glucosinolate; cited from earlier work
[6] = test system: turnip aphid (Lipaphis erysimi) myrosinase; assay: Ascorbate activation of turnip aphid myrosinase; type: biochemical; conditions: concentration range 0.1-20 mM
[7] = target: T3, native enzyme (myrosinase) from white mustard seed (Sinapis alba) (Sinapis alba, UniProt P29736); conditions: stable glycosyl-enzyme intermediate at the active site; cited from earlier work
T3 construct: the native enzyme from white mustard seed (Sinapis alba) has been crystallised; host or cells: white mustard seed

[8] = Myrosinase micro assay (glucose released by hydrolysis of sinigrin); type: biochemical; conditions: sinigrin 1.08 mM, pH 5.5, 30° C.
Experimental: as §1
Enzyme solution and sinigrin (1.08 mM) in 500 μl of sodium citrate buffer (100 mM, pH 5.5) was incubated at 30° C. for 20 min. The reaction was stopped by addition of 40 μl 3M HCl (aq) and GOD-PERID reagent (2.5 ml) was added to the reaction mixture and incubated for 15 min at 37° C. The optical density was read at 346 nm and the glucose concentration calculated from a calibration graph.

white mustard (Sinapis alba) myrosinase, sequence (P29736 whole entry): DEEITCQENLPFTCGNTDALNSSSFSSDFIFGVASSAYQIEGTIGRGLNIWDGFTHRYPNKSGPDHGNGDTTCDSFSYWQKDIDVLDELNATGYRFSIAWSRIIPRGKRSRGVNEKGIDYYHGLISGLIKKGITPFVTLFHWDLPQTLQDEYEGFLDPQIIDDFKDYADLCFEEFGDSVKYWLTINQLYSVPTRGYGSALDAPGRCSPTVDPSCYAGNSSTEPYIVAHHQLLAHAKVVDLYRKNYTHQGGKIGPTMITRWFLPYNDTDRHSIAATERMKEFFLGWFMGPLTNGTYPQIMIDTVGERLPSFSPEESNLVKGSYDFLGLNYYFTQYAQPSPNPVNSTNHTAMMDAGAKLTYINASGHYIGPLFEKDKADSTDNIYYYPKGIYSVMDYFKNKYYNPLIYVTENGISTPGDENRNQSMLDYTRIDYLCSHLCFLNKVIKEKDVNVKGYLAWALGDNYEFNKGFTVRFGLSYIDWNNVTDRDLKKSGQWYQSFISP
T3 sequence (P29736 whole entry): as above

O=C1O[C@H](CO)[C@@H](O)[C@H](O)[C@H]1O [D-glucono-β-lactone]
inhibition of plant myrosinase [1]: poor inhibitors

C=CC/C(=N/OS(=O)(=O)O)S[C@@H]1O[C@H](CO)[C@@H](O)[C@H](O)[C@H]1O [2-propenylglucosinolate]
Km [2]: 420 µM | Km [3]: 613 µM

OC[C@H]1NC[C@H](O)[C@@H](O)[C@@H]1O [DNJ, 1-deoxynojirimycin]
inhibition of aphid myrosinase [4]: inhibited | inhibition of plant myrosinase [5]: not significantly

O=S(=O)(O)O/N=C(\Cc1ccccc1)S[C@@H]1O[C@H](CO)[C@@H](O)[C@H](O)[C@H]1O [benzyl glucosinolate]
Km [3]: 915 µM

O=C1O[C@H]([C@@H](O)CO)C(O)=C1O [ascorbate, ascorbic acid]
inhibition of plant myrosinases ([1]; high concentrations): inhibited | activation of plant myrosinases ([1]; low concentrations): activated | activation by ascorbate [6]: not activated | activation by ascorbate ([3]; concentration range 0.1-20 mM): not activated

OC[C@@H]1[C@@H](O)[C@H](O)[C@@H]2[C@@H](O)CCN21 [Alexine]
inhibition of aphid myrosinase [4]: inhibited | inhibition of plant myrosinase [5]: not significantly

O=S(=O)(O)ON=C(Cc1ccccc1)S[C@@H]1O[C@H](CO)[C@@H](O)[C@H](O)[C@H]1F [2-deoxy-2-fluoroglucotropaeolin]
inhibition of the enzyme [7]: potent inhibitor | Ki [3]: extremely low | type of inhibition [3]: competitively inhibited

OC[C@H]1N[C@H](CO)[C@@H](O)[C@@H]1O [DMDP, (2R, 5R)-dihydroxymethyl-(3R,4R)-dihydroxypyrrolidine]
inhibition of aphid myrosinase [4]: effectively inhibited | inhibition of plant myrosinase [5]: effectively inhibited

OC[C@H]1NC[C@@H](O)[C@@H]1O [AB1, 1,4-dideoxy-1,4-imino-D-arabinitol]
inhibition of aphid myrosinase [4]: inhibited | inhibition of plant myrosinase [5]: not significantly

O[C@H]1[C@H](O)[C@@H](O)CN2CC[C@H](O)[C@H]12 [castanospermine]
inhibition of aphid myrosinase [4]: effectively inhibited | inhibition of plant myrosinase [5]: effectively inhibited

B1: Pure aphid myrosinase: myrosinase enzyme purified to homogeneity from Brevicoryne brassicae (SEQ ID NO. 1) (protein, listed as Brevicoryne brassicae)
chain: MDYKFPKDFMFGTSTASYQIEGGWNEDGKGENIWDRLVHTSPEVIKDGTNGDIACDSYHKYKEDVAIIKDLNLKFYRFSISWARIAPSGVMNSLEPKGIAYYNNLINELIKNDIIPLVTMYHWDLPQYLQDLGGWVNPIMSDYFKEYARVLFTYFGDRVKWWITFNEPIAVCKGYSIKAYAPNLNLKTTGHYLAGHTQLIAHGKAYRLYEEMFKPTQNGKISISISGVFFMPKNAESDDDIETAERANQFERGWFGHPVYKGDYPPIMKKWVDQKSKEEGLPWSKLPKFTKDEIKLLKGTADFYALNHYSSRLVTFGSDPNPNFNPDASYVTSVDEAWLKPNETPYIIPVPEGLRKLLIWLKNEYGNPQLLITENGYGDDGQLDDFEKISYLKNYLNATLQAMYEDKCNVIGYTVWSLLDNFEWFYGYSIHFGLVKIDFNDPQRTRTKRESYTYFKNVVSTGKP
Specific activity [8]: 20.000 µmol/mg/min
